Laboratory results published in patent US9527830B2 (Merck Sharp & Dohme Corp., priority 2011, dated 2016).

What was measured:
hROMK1 (Kir1.1) = target: T1, hROMK1 (Kir1.1) (Homo sapiens, UniProt P48048); experiment: ^86Rb^+ Efflux Assay; type: cell-based; settings: CHO-DHFR- cells stably expressing hROMK1; potency ranges
T1 construct: expressed in transfected cells
T1 sequence (P48048 1-391): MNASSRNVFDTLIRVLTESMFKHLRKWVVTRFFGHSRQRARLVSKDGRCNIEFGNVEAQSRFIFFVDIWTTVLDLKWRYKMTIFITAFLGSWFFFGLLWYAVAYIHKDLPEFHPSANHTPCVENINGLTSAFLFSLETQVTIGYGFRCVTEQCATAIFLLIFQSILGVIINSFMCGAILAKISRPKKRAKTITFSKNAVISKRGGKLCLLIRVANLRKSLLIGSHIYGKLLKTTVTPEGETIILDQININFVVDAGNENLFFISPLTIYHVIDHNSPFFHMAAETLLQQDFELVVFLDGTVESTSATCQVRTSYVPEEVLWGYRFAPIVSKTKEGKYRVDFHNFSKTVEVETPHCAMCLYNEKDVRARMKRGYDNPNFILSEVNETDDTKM
Method: (§1) Several assays may be used to measure functional inhibition of the ROMK channel by compounds of the instant invention. One primary assay that can be used is a functional ^86Rb^+ efflux assay that measures the ability of ROMK to permeate ^86Rb^+, in the absence or presence of test compound. Under control conditions, cells loaded with ^86Rb^+ and incubated in Rb^+-free medium display a time-dependent efflux of the isotope, the rate of which depends on number of functional channels. When cells are incubated in the presence of a channel inhibitor, efflux of ^86Rb^+ is prevented in a concentration-dependent manner, and IC50 values of inhibition by compounds can be accurately determined. This assay has been established with cell lines expressing either human, rat or dog ROMK channels, and can operate in 96- or 384-well format. Importantly, the human, rat, and dog ^86Rb^+ efflux assays can be carried out in the presence of up to 100% serum allowing, therefore, an accurate estimation of the effect of protein binding on the inhibitory activity of compounds of interest. Another ROMK functional assay makes use of the ability of thallium to permeate through open ROMK channels and increase the fluorescence of a dye previously loaded into the cells. Under control conditions, cells loaded with dye and exposed to thallium-containing medium display a time-dependent increase in fluorescence, the rate of which depends on number of functional channels. When cells are incubated in the presence of a channel inhibitor, the increase in fluorescence is attenuated in a concentration-dependent manner, and IC50 values of inhibition by compounds can be accurately determined. This assay has been established with cell lines expressing either human, or rat ROMK channels, and operates in 384-well format. Another assay for evaluation of the compounds of the instant invention and for evaluation of mechanism of action of compounds of Formula I relies on the measurement of the electrical current that is generated as potassium permeates through the channel. For these electrophysiological experiments, three different platforms, IonWorks, QPatch, or manual patch clamp, are used, depending on the experimental protocol under consideration. IonWorks operates in a 384-well format and allows accurate determination of IC50 values for inhibitors.
CHO-DHFR-cells stably expressing hROMK1 (Kir1.1) were grown at 37° C. in a 10% CO2 humidified incubator in Iscove's Modified Dulbecco's Medium (Gibco 12440) supplemented with HT Supplement, Penicillin/Streptomycin/Glutamine, G418 (500 μg/ml) and 10% FBS. Cells were seeded in Sterile and Tissue Culture Treated Packard CulturPlate White Opaque Microplates at a concentration of 5.0E5-7.0E5 cells/ml—PerkinElmer 6005680 (96-well); Corning 3707 (384 well) in complete media containing 1.5 μCi/ml Rubidium-86. Cells were incubated in 37° C.-10% CO2 incubator overnight. On the day of the experiment, the media was removed and cells washed with low K assay buffer. ^86Rb^+ efflux was initiated after addition of assay buffer±test compound followed by 35 min incubation at room temperature. ROMK-sensitive component of efflux was defined in the presence of 10 mM BaCl2. Assay buffer was removed and transferred to a plate and cells were solubilized in the presence of SDS. Radioactivity associated with assay and cell plate was determined.
• 1. Removed cell media and washed cells with low K assay buffer (126.9 mM NaCl, 4.6 mM KCl, 2 mM CaCl2, 1 mM MgCl2, 10 mM Hepes/NaOH; pH 7.4) • 200 μl for 96-well plate; 70 μl for 384-well plate • 2. Added assay buffer (121.5 mM NaCl, 10 mM KCl, 2 mM CaCl2, 1 mM MgCl2, 10 mM Hepes/NaOH; pH 7.4)±test compound to cells • 100 μl for 96-well plate; 50 μl for 384-well plate • 3. Incubated at ambient temperature (22-24° C.) for 35 min • 4.

hROMK (hKir1.1) = target: T2, hROMK (hKir1.1) (Homo sapiens, UniProt P48048); experiment: Thallium Flux Assay (FluxOR, FLIPR-Tetra); type: cell-based; settings: HEK293 cells stably expressing hROMK; potency ranges
T2 construct: expressed in transfected cells
T2 sequence (P48048 1-391): T1 sequence (P48048 1-391)
Method: as §1
HEK293 cells stably expressing hROMK (hKir1.1) were grown at 37° C. in a 10% CO2 humidified incubator in complete growth media: Dulbecco's Modified Eagle Medium supplemented with non-essential amino acids, Penicillin/Streptomycin/Glutamine, G418 and FBS. At >80% confluency, media was aspirated from the flask and rinsed with 10 ml Calcium/Magnesium-free PBS. 5 ml of 1× trypsin (prepared in Ca/Mg Free PBS) was added to T-225 flask and flask returned to 37° C./CO2 incubator for 2-3 minutes. To dislodge the cell, the side of the flask was gently banged by hand. Cells were completely triturated and then transferred to 25 ml complete media, and centrifuged at 1,500 rpm for 6 min followed by resuspension in complete growth media and cell concentration determined. For typical re-seeding, 4E6 cells/T-225 flask attained >80% confluency in 4 days. Under ideal growth conditions and appropriate tissue culture practices, this cell line was stable for 40-45 passages.
FluxOR™ Kit Components (Invitrogen F10017)
• FluxOR™ Reagent (Component A) • FluxOR™ Assay Buffer (Component B)—10× Concentrate • PowerLoad™ Concentrate (Component C)—100× Concentrate • Probenecid (Component D)—Lyophilized sample was kept at −20° C. Water soluble, 100× after solubilization in 1 ml water. Store at 4° C. • FluxOR™ Chloride-free Buffer (Component E)—5× Concentrate • Potassium sulfate (K2SO4) Concentrate (Component F)—125 mM in water. Stored at 4° C. • Thallium sulfate (Tl2SO4) Concentrate (Component G)—50 mM in water. […]

Row | IC50 (hROMK1 (Kir1.1)) [nM] | IC50 (hROMK (hKir1.1)) [nM] | SMILES
1 | ≤ 500 | ≤ 200 | O=C1OCc2cc(SC3CCN(CC(O)c4ccc5c(c4)COC5=O)CC3)ccc21 (centres unmarked) [Example 85, 5-({1-[2-hydroxy-2-(1-oxo-1,3-dihydro-2-benzofuran-5-yl)ethyl]piperidin-4-yl}sulfanyl)-2-benzofuran-1(3H)-one]
2 | ≤ 200 | ≤ 100 | Cc1c(C(O)CC2CCN(C[C@H](O)c3ccc4c(c3C)COC4=O)CC2)ccc2c1COC2=O (stereo partly drawn) [Example 86, 5-[(1R)-1-Hydroxy-2-{4-[2-hydroxy-2-(4-methyl-1-oxo-1,3-dihydro-2-benzofuran-5-yl)ethyl]piperidin-1-yl}ethyl]-4-methyl-2-benzofuran-1(3H)-one]
3 | ≤ 200 | ≤ 100 | Cc1c(CC(O)C2CCN(C[C@H](O)c3ccc4c(c3C)COC4=O)CC2)ccc2c1COC2=O (stereo partly drawn) [Example 87, 5-[(1R)-1-Hydroxy-2-{4-[1-hydroxy-2-(4-methyl-1-oxo-1,3-dihydro-2-benzofuran-5-yl)ethyl]piperidin-1-yl}ethyl]-4-methyl-2-benzofuran-1(3H)-one]
4 | ≤ 200 | ≤ 100 | Cc1c(CCN2CCC(NCc3ccc4c(c3)COC4=O)CC2)ccc2c1COC2=O [Example 88, 4-Methyl-5-[2-(4-{[(1-oxo-1,3-dihydro-2-benzofuran-5-yl)methyl]amino}piperidin-1-yl)ethyl]-2-benzofuran-1(3H)-one]
5 | ≤ 500 | ≤ 200 | Cc1c(CCN2CCC(NCc3ccc4nonc4c3)CC2)ccc2c1COC2=O [Example 89, 5-(2-{4-[(2,1,3-Benzoxadiazol-5-ylmethyl)amino]piperidin-1-yl}ethyl)-4-methyl-2-benzofuran-1(3H)-one]
6 | ≤ 500 | ≤ 200 | Cc1c(CCN2CCC(NCc3ccc(C#N)c(F)c3)CC2)ccc2c1COC2=O [Example 90, 2-Fluoro-4-[({1-[2-(4-methyl-1-oxo-1,3-dihydro-2-benzofuran-5-yl)ethyl]piperidin-4-yl}amino)methyl]benzonitrile]
7 | – | ≤ 100 | Cc1c([C@@H](O)CN2CCC(Nc3ccc(C#N)cn3)CC2)ccc2c1COC2=O [Example 111, (R)-6-(1-(2-Hydroxy-2-(4-methyl-1-oxo-1,3-dihydroisobenzofuran-5-yl)ethyl)piperidin-4-ylamino)nicotinonitrile]

Row | SMILES | IC50 (hROMK1 (Kir1.1)) [nM] | IC50 (hROMK (hKir1.1)) [nM]
8 | Cc1c([C@@H](O)CN2[C@@H]3CC[C@H]2CC(Nc2ccc(C#N)cn2)C3)ccc2c1COC2=O (stereo partly drawn) [Example 112, 6-((1R,5S)-8-((R)-2-Hydroxy-2-(4-methyl-1-oxo-1,3-dihydroisobenzofuran-5-yl)ethyl)-8-azabicyclo[3.2.1]octan-3-ylamino)nicotinonitrile] | – | ≤ 100
